The values below come from patent US11771709B2, “ALK protein degradation agent and anti-tumor application thereof” (ShanghaiTech University, priority 2017, dated 2023).

Like-named read-outs stand apart in the source and are kept apart here.

The test system of test [1] is SW48 cell line (EGFR G719S). In words: Growth inhibition IC50 in EGFR G719S colorectal cancer cell line SW48. It is filed as cell-based. To be noted: Homo sapiens, CTG, n = 2, read-out: Half Inhibitory Concentration (IC50) Mean.
In another test the test system is MOLM13 cells (FLT3-ITD). The test can be described thus: Growth inhibition IC50 in FLT3-ITD AML cell line MOLM13. Format: cell-based. To be noted: Homo sapiens.
The subject of test [2] is U118MG cells (FIG-ROS1 gene fusion). The test can be described thus: Growth inhibition IC50 in ROS1 mutant glioblastoma cell line U118MG (72 hours). Format: cell-based. The following applies: Homo sapiens, U-118-MG, read-out: Half Inhibitory Concentration (IC50) Mean.
In test [3] the target is T1, ALK protein in H3122 (EML4-ALK) cells (Homo sapiens, UniProt Q9UM73).
T1 construct: EML4 (Echinoderm microtubule-associated protein-like 4, Q9HC35) fusion partner, variant 1; host or cells: NCI-H3122 lung adenocarcinoma cells; the other entry of the earlier key: EML4 (Q9HC35, Echinoderm microtubule-associated protein-like 4)
In words: Western blot of ALK protein level (degradation, DC50), ALK phosphorylation and downstream signaling in H3122 cells. It is filed as cell-based. To be noted: ALK protein degradation in H3122 cells. (A western blot detects proteins with antibodies after separation by electrophoresis.)

A further test relates to SR (NPM-ALK) cells. In words: Growth inhibition IC50 in ALCL SR cells (CCK8/WST, 72 hours). Format: cell-based. To be noted: SR cells, WST.
The subject of test [4] is NCI-H3122 (EML4-ALK, V1) cells. In words: Growth inhibition IC50 in lung cancer H3122 cells (Cell Titer Blue / Cell Titer Glo). To be noted: Homo sapiens, NCI-H3122, H3122 cells. Background: Alamar Blue is a resazurin reagent that responds to reducing activity.
Test [5] concerns the target T2, ALK protein in SR (NPM-ALK) cells (Homo sapiens, UniProt Q9UM73).
T2 construct: NPM (nucleophosmin, NPM1, P06748) fusion partner; host or cells: SR (ALCL) cells; the other entry of the earlier key: NPM1 (P06748, Nucleophosmin)
In words: Western blot of ALK protein level (degradation, DC50), ALK phosphorylation and downstream signaling in SR cells. It is filed as cell-based. The following applies: for DC50: ALK protein degradation in SR cells.

In test [6] the test system is PC9 (EGFR, exon 19 del) cells. In words: Growth inhibition IC50 in EGFR mutant lung adenocarcinoma PC9 cells. It is filed as cell-based. To be noted: Homo sapiens, PC-9; PC9 cells, CTB, n ≥ 3; read-out: Half Inhibitory Concentration (IC50) Mean.
Test [7] relates to PC9Brc1 (EGFR, exon 19 del+T790M) cells. In words: Growth inhibition IC50 in EGFR mutant lung cancer PC9Brc1 cells. To be noted: CTB, n ≥ 3, read-out: Half Inhibitory Concentration (IC50) Mean. It is filed as cell-based.
Setting [8] is: MOLM-13, read-out: Half Inhibitory Concentration (IC50) Mean.
Where [9] appears, read: 72 h, Brigatinib-based PROTAD molecules (Table 3).

T1 sequence (Q9UM73 with tags, fused parts or gaps): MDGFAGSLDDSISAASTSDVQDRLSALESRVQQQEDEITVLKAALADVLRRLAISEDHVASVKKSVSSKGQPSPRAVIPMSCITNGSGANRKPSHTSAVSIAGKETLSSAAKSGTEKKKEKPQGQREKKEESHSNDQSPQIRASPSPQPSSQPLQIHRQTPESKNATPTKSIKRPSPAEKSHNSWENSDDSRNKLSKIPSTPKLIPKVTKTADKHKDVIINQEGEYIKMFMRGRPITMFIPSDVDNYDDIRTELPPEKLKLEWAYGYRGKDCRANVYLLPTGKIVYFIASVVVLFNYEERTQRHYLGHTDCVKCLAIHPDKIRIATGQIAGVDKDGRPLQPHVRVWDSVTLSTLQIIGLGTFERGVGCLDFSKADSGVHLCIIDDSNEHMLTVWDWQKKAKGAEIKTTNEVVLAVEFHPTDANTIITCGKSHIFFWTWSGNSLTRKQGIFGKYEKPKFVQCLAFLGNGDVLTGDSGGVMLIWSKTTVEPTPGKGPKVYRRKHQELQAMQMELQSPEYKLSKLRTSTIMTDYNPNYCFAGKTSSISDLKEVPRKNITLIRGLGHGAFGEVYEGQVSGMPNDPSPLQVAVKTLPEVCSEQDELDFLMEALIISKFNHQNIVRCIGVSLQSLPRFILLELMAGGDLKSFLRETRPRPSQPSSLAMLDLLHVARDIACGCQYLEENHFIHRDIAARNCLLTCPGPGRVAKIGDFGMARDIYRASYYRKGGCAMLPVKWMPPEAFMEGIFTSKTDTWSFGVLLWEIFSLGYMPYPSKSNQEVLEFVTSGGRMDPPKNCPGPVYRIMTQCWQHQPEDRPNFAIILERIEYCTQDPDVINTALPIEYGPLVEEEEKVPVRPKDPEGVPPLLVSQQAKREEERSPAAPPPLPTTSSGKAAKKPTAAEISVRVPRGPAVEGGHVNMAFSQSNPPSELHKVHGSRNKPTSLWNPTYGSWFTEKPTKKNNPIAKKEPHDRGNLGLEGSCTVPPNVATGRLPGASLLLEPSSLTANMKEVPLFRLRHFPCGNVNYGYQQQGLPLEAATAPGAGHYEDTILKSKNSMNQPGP
T2 sequence (Q9UM73 with tags, fused parts or gaps): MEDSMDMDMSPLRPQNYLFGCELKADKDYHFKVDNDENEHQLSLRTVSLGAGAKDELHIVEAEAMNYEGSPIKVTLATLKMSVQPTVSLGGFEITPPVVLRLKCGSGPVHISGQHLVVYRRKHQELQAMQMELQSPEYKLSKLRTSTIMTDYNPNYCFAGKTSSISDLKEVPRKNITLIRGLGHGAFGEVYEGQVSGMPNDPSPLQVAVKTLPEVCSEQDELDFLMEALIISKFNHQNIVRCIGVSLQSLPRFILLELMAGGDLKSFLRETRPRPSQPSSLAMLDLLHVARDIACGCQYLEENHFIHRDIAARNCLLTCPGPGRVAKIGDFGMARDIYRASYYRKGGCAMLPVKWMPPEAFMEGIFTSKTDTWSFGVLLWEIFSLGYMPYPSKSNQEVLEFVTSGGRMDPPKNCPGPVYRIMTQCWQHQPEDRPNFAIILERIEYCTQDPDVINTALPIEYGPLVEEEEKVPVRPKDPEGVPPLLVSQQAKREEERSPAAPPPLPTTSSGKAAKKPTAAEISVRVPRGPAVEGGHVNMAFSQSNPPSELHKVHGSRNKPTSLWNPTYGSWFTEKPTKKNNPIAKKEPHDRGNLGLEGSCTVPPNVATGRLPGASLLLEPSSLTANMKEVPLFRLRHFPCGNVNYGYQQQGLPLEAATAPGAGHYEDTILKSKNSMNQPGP

As to `CCc1cc2c(cc1N1CCC(N3CCOCC3)CC1)C(C)(C)c1[nH]c3cc(C#N)ccc3c1C2=O` [Alectinib, reference compound], the IC50 in [1] is 800 nM; in the test on MOLM13 cells (FLT3-ITD) (setting [8]) it was 255 nM; in [2] (72 h), 1480 nM.

`C[C@@H](Oc1cc(-c2cnn(C3CCNCC3)c2)cnc1N)c1c(Cl)ccc(F)c1Cl` [Crizotinib, reference compound]: the figures for the IC50 (with MOLM13 cells (FLT3-ITD) (setting [8]); in test [2] (72 h)) were 291 nM and 2570 nM, respectively.

Broadly, the DC50 is the concentration giving 50% degradation. In test [3], `Cc1cc(Nc2ncc(Cl)c(Nc3ccccc3S(=O)(=O)C(C)C)n2)c(OC(C)C)cc1C1CCN(C(=O)CCOCCNc2cccc3c2C(=O)N(C2CCC(=O)NC2=O)C3=O)CC1` (centres unmarked) [SIAIS151031, 4-((2-(3-(4-(4-((5-chloro-4-((2-(isopropylsulfonyl)phenyl)amino)pyrimidin-2-yl)amino)-5-isopropoxy-2-methylphenyl)piperidin-1-yl)-3-oxopropoxy)ethyl)amino)-2-(2,6-dioxopiperidin-3-yl)isoindoline-1,3-dione] displayed a DC50 of 100 to 500 nM. Besides, the IC50 is 85 nM with SR (NPM-ALK) cells (Ceritinib based ALK PROTAD compounds (Table 5)), 7 nM in test [4] (CTB (Cell Titer Blue)) and 81 nM in test [4] (CTG (Cell Titer Glo)).

With `COc1cc(N2CCC(N3CCN(C(=O)CCOCCNc4cccc5c4C(=O)N(C4CCC(=O)NC4=O)C5=O)CC3)CC2)ccc1Nc1ncc(Cl)c(Nc2ccccc2P(C)(C)=O)n1` (centres unmarked) [SIAIS164007, 4-((2-(3-(4-(1-(4-((5-chloro-4-((2-(dimethylphosphoryl)phenyl)amino)pyrimidin-2-yl)amino)-3-methoxyphenyl)piperidin-4-yl)piperazin-1-yl)-3-oxopropoxy)ethyl)amino)-2-(2,6-dioxopiperidin-3-yl)isoindoline-1,3-dione], the DC50 lay within 10 to 50 nM in test [3] and 1 to 10 nM in test [5]. The figures for the IC50 (with SR (NPM-ALK) cells (setting [9]); in test [6]; in test [7]) were 3.8 ± 1.9 nM, 358 nM and 1610 nM, respectively.

As to `COc1cc(N2CCC(N3CCN(C(=O)CCCCNc4cccc5c4C(=O)N(C4CCC(=O)NC4=O)C5=O)CC3)CC2)ccc1Nc1ncc(Cl)c(Nc2ccccc2P(C)(C)=O)n1` (centres unmarked) [SIAIS164021, 4-((5-(4-(1-(4-((5-chloro-4-((2-(dimethylphosphoryl)phenyl)amino)pyrimidin-2-yl)amino)-3-methoxyphenyl)piperidin-4-yl)piperazin-1-yl)-5-oxopentyl)amino)-2-(2,6-dioxopiperidin-3-yl)isoindoline-1,3-dione], the DC50 in [3] is 1 to 10 nM; in test [5], 0.1 to 0.5 nM. Further, the IC50 with SR (NPM-ALK) cells (setting [9]) turned out to be 7.4 ± 5 nM; in test [6] it was 434 nM; in test [7], 2440 nM. Also, the “concentration at which ALK proteins were degraded” value in [5] (SR cells, western blot) turned out to be 1 nM.

On to `COc1cc(N2CCC(N3CCN(C(=O)CCCCCNc4cccc5c4C(=O)N(C4CCC(=O)NC4=O)C5=O)CC3)CC2)ccc1Nc1ncc(Cl)c(Nc2ccccc2P(C)(C)=O)n1` (centres unmarked) [SIAIS164022, 4-((6-(4-(1-(4-((5-chloro-4-((2-(dimethylphosphoryl)phenyl)amino)pyrimidin-2-yl)amino)-3-methoxyphenyl)piperidin-4-yl)piperazin-1-yl)-6-oxohexyl)amino)-2-(2,6-dioxopiperidin-3-yl)isoindoline-1,3-dione], for which the DC50 in test [3] and in test [5] was 1 to 10 nM throughout. The IC50 in the test on SR (NPM-ALK) cells (setting [9]) stood at 3.3 ± 2.2 nM; in [6], 233 nM; in [7], 696 nM.

As to `COc1cc(N2CCC(NC(=O)CCCCCCC(=O)N[C@H](C(=O)N3C[C@H](O)C[C@H]3C(=O)NCc3ccc(-c4scnc4C)cc3)C(C)(C)C)CC2)ccc1Nc1ncc(Cl)c(Nc2ccccc2P(C)(C)=O)n1` [SIAIS164147, N1-(1-(4-((5-chloro-4-((2-(dimethylphosphoryl)phenyl)amino)pyrimidin-2-yl)amino)-3-methoxyphenyl)piperidin-4-yl)-N8-((S)-1-((2S,4R)-4-hydroxy-2-((4-(4-methylthiazol-5-yl)benzyl)carbamoyl)pyrrolidin-1-yl)-3,3-dimethyl-1-oxobutan-2-yl)octanediamide], the DC50 in test [3] fell in the range of 0.02 to 1 nM; in test [5], 1 to 10 nM. The IC50 was 2 ± 1.2 nM in the test with SR (NPM-ALK) cells (setting [9]), 321 nM in test [6] and 1280 nM in [7].

Turning to `COc1cc(N2CCC(NC(=O)CCCCCCCC(=O)N[C@H](C(=O)N3C[C@H](O)C[C@H]3C(=O)NCc3ccc(-c4scnc4C)cc3)C(C)(C)C)CC2)ccc1Nc1ncc(Cl)c(Nc2ccccc2P(C)(C)=O)n1` [SIAIS164148], the DC50 in [3] lay in the range of 1 to 50 nM; in test [5], 1 to 10 nM. Moreover, the IC50 was determined as 1.5 ± 0.8 nM in the test on SR (NPM-ALK) cells (setting [9]), 153 nM in test [6] and 1340 nM in [7].

Turning to `COc1cc(N2CCC(NC(=O)CCCCCCCCC(=O)N[C@H](C(=O)N3C[C@H](O)C[C@H]3C(=O)NCc3ccc(-c4scnc4C)cc3)C(C)(C)C)CC2)ccc1Nc1ncc(Cl)c(Nc2ccccc2P(C)(C)=O)n1` [SIAIS164149, N1-(1-(4-((5-chloro-4-((2-(dimethylphosphoryl)phenyl)amino)pyrimidin-2-yl)amino)-3-methoxyphenyl)piperidin-4-yl)-N10-((S)-1-((2S,4R)-4-hydroxy-2-((4-(4-methylthiazol-5-yl)benzyl)carbamoyl)pyrrolidin-1-yl)-3,3-dimethyl-1-oxobutan-2-yl)decanediamide], the “DC50 (nM)) in H3122” value in [3] is 0.02 to 20 nM. The IC50 was found to be 2.3 ± 2 nM in the test on SR (NPM-ALK) cells (setting [9]), 187 nM in test [6] and 988 nM in [7]. Besides, the DC50 in test [5] was 1 to 10 nM.

Turning to `COc1cc(N2CCC(N3CCN(C(=O)CNc4cccc5c4CN(C4CCC(=O)NC4=O)C5=O)CC3)CC2)ccc1Nc1ncc(Cl)c(Nc2ccccc2P(C)(C)=O)n1` (centres unmarked) [SIAIS219073, 3-(4-((2-(4-(1-(4-((5-chloro-4-((2-(dimethylphosphoryl)phenyl)amino)pyrimidin-2-yl)amino)-3-methoxyphenyl)piperidin-4-yl)piperazin-1-yl)-2-oxoethyl)amino)-1-oxoisoindolin-2-yl)piperidine-2,6-dione], the IC50 in test [1] was more than 20000 nM; with MOLM13 cells (FLT3-ITD) (MOLM-13, MOLM13 cells, n = 2, reagent CTG, read-out: Half Inhibitory Concentration (IC50) Mean) it was 373 nM; in [2] (U118MG cells, 72 hours, n = 2, reagent CTG) it was more than 20000 nM; with SR (NPM-ALK) cells (setting [9]) it was 1.8 ± 1 nM.
